These results are taken from patent US20230330040A1, “IMMUNOLOGICAL EFFECTS OF METABOLITES” (The Regents of the University of California, priority 2020, published 2023).

“Also recorded” adds a separate entry of the source.

For test [1], the system named is C. elegans var. Bristol (N2). The test can be described thus: C. elegans lifespan analysis. It counts as in vivo. Particulars: for lifespan extension versus untreated control worms / lifespan versus spermidine treated worms: lifelong treatment; for lifespan extension versus untreated control worms: 0.2 mM spermidine, 0.5 mM 1-MNA, 0.01 and 0.1 mM PEA, 0.01 mM OEA, b30 prints 100 μM spermidine, 100 μM 1-MNA; for lifespan extension versus Control: lifelong exposure. Here is the method: C. elegans var. Bristol (N2), was used as the wild-type strain. Strains were maintained and lifespan assays were performed at 20° C. Twenty-four hours after seeding Escherichia coli (OP50) bacteria on standard NGM plates, the bacteria were killed by 4 min exposure to UV irradiation using a Stratalinker UV crosslinker (Stratagene, Model 2400). The following concentrations of compounds were used: 0.2 mM spermidine, 0.5 mM 1-MNA, 0.01 and 0.1 mM PEA, and 0.01 mM OEA. Spermidine and MNA were diluted into 100 μl sterilized water and applied to the top of the agar medium (3 ml NGM plates). Plates were then gently swirled to allow compounds to spread to the entire NGM surface. Identical solutions of compound-free water were used for the control plates. Plates were then allowed to dry overnight. The procedure was repeated each time worms were transferred to fresh plates (every 2-4 days). PEA and OEA were added to cooled agar, prior to solidification; for the combination, all compounds were added to cooled agar and plates stored at 4° C. Synchronous worm populations were generated by hypochlorite treatment of gravid adults and life span assays were performed beginning at the L4 stage (Day 0). Seven to eight plates of 15 worms each were exposed to the indicated compounds. Animals were transferred to fresh plates every 2 days for the first week and then 3-4 days thereafter. Worms were examined for touch-provoked movement and pharyngeal pumping, until death. Worms that died due to desiccation from crawling on the edge of the plates, were censored. Kaplan-Meier survival curves were created to evaluate C. elegans lifespan. The R package survival (3.1.8) was used to fit the Cox proportional hazards regression model to evaluate differences of survivals between each treatment group versus control.

For test [2], the system named is total cyclooxygenase (COX) activity. The test is described as follows: COX activity assay in LPS stimulated THP-1 macrophage. It counts as cell-based, human. Particulars: spermidine 100 μM, 1-MNA 100 μM, PEA 10 nM, OEA 10 μM, Combo = all four. Here is the method:
For certain assays requiring high cellular concentrations beyond what was feasible to isolate from human volunteers, THP-1 monocytes (ATCC, TIB-202) were cultured in RPMI 1640, 10% FBS, lx PSG and differentiated into M0 macrophage using 100 nM phorbol 12-myristate-13-acetate (PMA) for 2 days followed by incubation with clean RPMI, 10% FBS, 1×PSG for 1 day.
The effect of treatment with participant plasma and individual metabolites on the total cellular COX activity of THP-1 macrophage was measured using a commercially available kit (Cayman Chemical, 760151). In order to induce COX-2 expression, THP-1 macrophage were incubated with 10 ng/mL of lipopolysaccharide (LPS) (Sigma, LPS25) in RPMI, 1×PSG along with 20% participant plasma, or in RMPI, 10% FBS, 1×PSG either alone as a positive control or with isolated metabolites overnight (approximately 18 hrs) before measuring total COX activity from cell lysates. A negative control of macrophage in RPMI, 10% FBS, 1×PSG without LPS was also performed. (Inter CV: 5.4, Intra CV: 12.3)

As for `C[n+]1cccc(C(N)=O)c1` [1-MNA, 1-methylnicotinamide], the “lifespan extension versus untreated control worms” value in test [1] is on record as “Significant lifespan extension was observed for all metabolites except 1-MNA”.
`CCCCCCCCCCCCCCCC(=O)NCCO` [PEA, palmitoylethanolamide]: the “total COX activity versus vehicle treated positive control” value in test [2] is listed as “potent inhibitor of COX activity”. Moreover, in test [1] (PEA 10 μM (lower concentration)), the “lifespan extension versus Control” value is on record as “most effective at increasing lifespan; also recorded: Significant lifespan extension”. For the same molecule, the “lifespan extension versus Control” value in test [1] (PEA 100 μM) is reported as “Significant lifespan extension”. In test [1], the “lifespan versus spermidine treated worms” value was “significantly increased lifespan” and the “lifespan extension versus untreated control worms” value is on record as “significantly increased lifespan extension”.
`NCCCCNCCCN` [spermidine]: the “lifespan extension versus untreated control worms” value in test [1] is reported as “significantly increased lifespan extension; also recorded: Significant lifespan extension”.
Regarding `CCCCCCCC/C=C\CCCCCCCC(=O)NCCO` [OEA, oleoylethanolamide], in test [1], the “lifespan versus spermidine treated worms” value is reported as “significantly increased lifespan” and the “lifespan extension versus untreated control worms” value is listed as “significantly increased lifespan extension; also recorded: Significant lifespan extension”.
